Legend:
GH-GHR-Jak2 signaling = assay: GH-induced signaling in Hek293T cells expressing GHR (pY staining, concentration series)
Method: (§1) GH-induced GH-GHR-Jak2 signaling was probed by GHR pY staining in concentration series (0-20 µM, 1 h drug-treated, 10 min GH).

[1] = system: triple negative human breast cancer cells (MDA-MB-231); assay: Proliferation test (DNA in vital cells, dose-response); type: cell-based; settings: Homo sapiens; inhibition of proliferation of MDA-MB-231, tested after 24, 48, 72h in cell culture
Method: The EC50 refers to the inhibitory effect of the compounds on the proliferation of triple negative human breast cancer cells (MDA-MB-231), tested after 24, 48, 72h in cell culture.
We used the triple-negative human breast cancer line, MDA-MB-231 and quantified DNA in vital cells. Dose-response curves were made after 24, 48 & 72 h. […] The compound with the lowest EC50 (Compound #1) was tested in vivo.

[2] = system: fos-zippered GHR cytosolic tails; assay: In vitro translation in HeLa cell-free system (Figure 4B); type: biochemical; settings: HeLa cell extract, increasing concentrations
Description: • Figure 1. Diagram of the primary screening method for candidate compounds. Depicted are GHR fos-zipped cytosolic tails, amino acid 288-638 with fos zippers (fos), box-1 sequence (B1), and Jak2 (FERM, SH2, pseudokinase and kinase domains), as described in Nespital et al., 2016; Sedek et al, 2014). If the dimerized tails and Jak2 bind via FERM and Box-1, Jak2 gets activated and phosphorylates itself, the dimerized tails and STAT5b. After phosphorylation of specific tyrosine residues on GHR, Jak2 and STAT5, the complex dissociates; as fos-pGHRct is protease-resistant it accumulates in the cells. Unphosphorylated fos-GHRct is rapidly degraded. Steady state levels of Fos-pGHRct are lower if its synthesis, degradation or Jak2-interaction is changed by a candidate compound. The cell-based assay was performed in y2A cells carrying inducible Jak2 (iJak2) or binding-deficient iJak2 Y119E (as control). • Figure 2. Effect of test compounds on mice, xenografted with MDA-MB-231 cells. Athymic nude BALB/c mice were transplanted with luciferase-expressing MDA-MB-231 cells at week -5. Starting at week 0, compound #1 was injected 3 times a week for 3 weeks; group size: 9, intraperitoneally (IP) at 1 or 5 mg/kg as indicated. […] The blots were detected with an anti-GHR antibody raised in rabbits against the cytosolic tails. • Figure 5: Schematic view of GHR signaling. […]

GHR = GHR protein levels and phosphorylation in GHR-expressing HEK293T cells transfected with Jak2 (blot, Figure 4A); type: cell-based, rabbit; settings: overnight treatment, compounds 10 µM; 90 ng GH/ml 10 min before lysis
Description: • Figure 1. […] Unphosphorylated fos-GHRct is rapidly degraded.

[3] = system: dog breast cancer cells, grown as organoids; assay: Growth of canine mammary tumor organoids; type: cell-based; settings: Canis lupus familiaris; organoids in Matrigel; read-out: EC50 growth inhibition of dog breast cancer organoids
Method: Next, we determined that also growth of dog breast cancer cells, grown as organoids, could be inhibited with the compounds according to the invention, in the best case (compound #1) with an EC50 of about 20 nM, see also figure 3.
Canine mammary organoids were derived from tumor cells and cultured in Matrigel in the presence of a variety of growth factors, Wnt activators and MPA (Timmermans-Sprang et al., 2017). Organoids were treated for 48 h with 100 nM of compound #1, followed by staining with DAPI (nuclei) or specific antibodies against GHR or cytokeratin 8 (CK8).

GM-CSF signaling = assay: GH/GM-CSF flow cytometric test in whole human blood with IM-9 lymphoblasts; settings: selectivity versus another Jak2-dependent cytokine
Method: This allowed simultaneous testing of GH- and GM-CSF activity. The GH/GM-CSF cytometric test added two important criteria to GH signaling: The test prioritized compounds that target the GH-driven signaling at the expense of another Jak2-dependent cytokine signaling (GM-CSF); equally important: it selected compounds that exert a rapid effect on the GH/IGF-axis as the response time for STAT5 phosphorylation was limited to 20-30 min.
as §1

MDA-MB-231 cells = assay: In vivo test in mice xenografted with MDA-MB-231 cells; design: species or system Athymic nude BALB/c mice
Description: • Figure 1. Diagram of the primary screening method for candidate compounds. Depicted are GHR fos-zipped cytosolic tails, amino acid 288-638 with fos zippers (fos), box-1 sequence (B1), and Jak2 (FERM, SH2, pseudokinase and kinase domains), as described in Nespital et al., 2016; Sedek et al, 2014). If the dimerized tails and Jak2 bind via FERM and Box-1, Jak2 gets activated and phosphorylates itself, the dimerized tails and STAT5b. After phosphorylation of specific tyrosine residues on GHR, Jak2 and STAT5, the complex dissociates; as fos-pGHRct is protease-resistant it accumulates in the cells. Unphosphorylated fos-GHRct is rapidly degraded. Steady state levels of Fos-pGHRct are lower if its synthesis, degradation or Jak2-interaction is changed by a candidate compound. The cell-based assay was performed in y2A cells carrying inducible Jak2 (iJak2) or binding-deficient iJak2 Y119E (as control). • Figure 2. Effect of test compounds on mice, xenografted with MDA-MB-231 cells. Athymic nude BALB/c mice were transplanted with luciferase-expressing MDA-MB-231 cells at week -5. Starting at week 0, compound #1 was injected 3 times a week for 3 weeks; group size: 9, intraperitoneally (IP) at 1 or 5 mg/kg as indicated. Anesthetized mice were IP-injected with luciferin and the bioluminescence was imaged. The animals received the last drug injections 2 hours before they were euthanized, then blood was collected and livers were weighed. […] Organoids were cultured in Matrigel in the presence of a variety of growth factors, Wnt activators and MPA. Organoids were treated for 48 h with 100 nM of compound #1 followed by staining with DAPI (nuclei) or specific antibodies against GHR or cytokeratin 8. • Figure 4A: Effect of compounds on GHR levels in Hek293T cells. […] The amounts of GHR both at the plasma membrane (PM) and in the endoplasmic reticulum (ER) were decreased in the cells treated with the compounds. […] Decrease of the pY signal in lanes 3 and 4 in the middle panel reflects the decrease of GHR protein levels (in the upper panel). […] Translation of other proteins was not affected by the drugs (not shown). We used a cell-free translation system based on HeLa cell extract (Promega) Empty vector (pcDNA) was used as control. The blots were detected with an anti-GHR antibody raised in rabbits against the cytosolic tails. • Figure 5: Schematic view of GHR signaling. Top panel, downstream signaling pathways with their main expressed genes and enzymatic activities; middle panel, resulting effect; lower panel, major diseased states if unbalanced.
Mice were xenografted with MDA-MB-231 cells as described. This cell line was chosen as it is GH-responsive, […] can block doxorubicin-induced apoptosis, it lacks E-cadherin due to hypermethylation, proliferates fast, has a basal-like expression profile and originates from infiltrating ductal breast cancer (Christgen and Derksen, 2015; Hollestelle et al., 2013; Minoia et al., 2012).
We used a protocol of 3 injections per week (1 and 5 mg/kg) during 3 weeks (9 mice/group). The treatment started after 5 weeks at a tumor volume of about 60 mm^3, and the animals were killed after 3 weeks at a tumor volume of 130 mm^3 in the control group.

[4] = IP 1 or 5 mg/kg, 3 times a week for 3 weeks

Cc1nc(N)nc(N)c1C=CC1(c2ccc(C(F)(F)F)cc2)CC1 [Compound #1, 6-methyl-5-[2-{1-[4-(trifluoromethyl)phenyl]cyclopropyl}ethenyl]pyrimidine-2,4-diamine]
phosphorylation of fos-GHRct (fos-pGHRct), of the active site of Jak2 (p1007/1008) and of STAT5 (pSTAT5) (GH-GHR-Jak2 signaling): inhibited | EC50 (GH-GHR-Jak2 signaling; Oryctolagus cuniculus, HEK-293T): ~300 nM | EC50 [1]: 30 nM | effective concentrations on in vitro translation of fos-zippered GHR cytosolic tails [2]: > 0.1 µM | amounts of GHR at the plasma membrane (PM) and in the endoplasmic reticulum (ER) / GHR protein levels (GHR): decreased | EC50 [3]: ~20 nM | activity towards GM-CSF signaling (GM-CSF signaling): inactive | significantly lowered liver weight (MDA-MB-231 cells; [4]): 85% | total body weights (MDA-MB-231 cells; [4]): remained the same | significantly lowered serum IGF-1 (MDA-MB-231 cells; IP 1 or 5 mg/kg, 3 times a week for 3 weeks, blood 2 hours after last injection): 27% | level of plasma IGF-1 (figure 2C) (MDA-MB-231 cells; treated vs control mice): decreased | liver weight (figure 2D) (MDA-MB-231 cells; treated vs control mice): reduced
